ChEMBL document CHEMBL1201862, “PubChem BioAssay data set” (2004)
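Method: 48-hour compound exposure of cells in 96-well plates, five concentrations, linear interpolation of endpoints. GI50 is the concentration that inhibits growth by half.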 Active and inactive are the calls of the source. Cut-off read from the data, not from the text of the source: active = GI50 up to about 1.1 µM and inactive = higher.

What was measured:
Test in all cases: NCI tumour cell line growth inhibition, 48 h
UO-31 = system: UO-31
EKVX = system: EKVX
OVCAR-4 = system: OVCAR-4
MDA-N = system: MDA-N
HL-60 = system: HL-60
UACC-62 = system: UACC-62
KM12 = system: KM12
HT-29 = system: HT-29
IGROV-1 = system: IGROV-1
OVCAR-5 = system: OVCAR-5
MOLT-4 = system: MOLT-4
SW-620 = system: SW-620
HCC 2998 = system: HCC 2998
SF-268 = system: SF-268
CAKI-1 = system: CAKI-1
LOX IMVI = system: LOX IMVI
NCI-H522 = system: NCI-H522
U-251 = system: U-251
SR = system: SR
RXF 393 = system: RXF 393
HOP-92 = system: HOP-92
M14 = system: M14
SN12C = system: SN12C
Malme-3M = system: Malme-3M
SK-MEL-5 = system: SK-MEL-5
MDA-MB-435 = system: MDA-MB-435
SK-MEL-28 = system: SK-MEL-28
NCI-H23 = system: NCI-H23
SNB-19 = system: SNB-19
ACHN = system: ACHN
K562 = system: K562
DU-145 = system: DU-145
NCI/ADR-RES = system: NCI/ADR-RES
HCT-15 = system: HCT-15
HCT-116 = system: HCT-116
UACC-257 = system: UACC-257
NCI-H460 = system: NCI-H460
A549 = system: A549
PC-3 = system: PC-3
786-0 = system: 786-0
RPMI-8226 = system: RPMI-8226
CCRF-CEM = system: CCRF-CEM
COLO 205 = system: COLO 205
MCF7 = system: MCF7
Hs-578T = system: Hs-578T
A498 = system: A498
SF-295 = system: SF-295
HOP-62 = system: HOP-62
NCI-H226 = system: NCI-H226
SF-539 = system: SF-539
TK-10 = system: TK-10
SK-OV-3 = system: SK-OV-3
SK-MEL-2 = system: SK-MEL-2
T47D = system: T47D
MDA-MB-231 = system: MDA-MB-231
SNB-75 = system: SNB-75
OVCAR-8 = system: OVCAR-8
OVCAR-3 = system: OVCAR-3

## CSc1sc(C)cc1-c1nsc(=O)o1
UO-31
  GI50: > 100 µM (inactive)
EKVX
  GI50: > 100 µM (inactive)
OVCAR-4
  GI50: > 100 µM (inactive)
MDA-N
  GI50: > 100 µM (inactive)
HL-60
  GI50: > 100 µM (inactive)
UACC-62
  GI50: > 100 µM (inactive)
KM12
  GI50: > 100 µM (inactive)
HT-29
  GI50: > 100 µM (inactive)
IGROV-1
  GI50: > 100 µM (inactive)
OVCAR-5
  GI50: > 100 µM (inactive)
MOLT-4
  GI50: > 100 µM (inactive)
SW-620
  GI50: > 100 µM (inactive)
HCC 2998
  GI50: > 100 µM (inactive)
SF-268
  GI50: > 100 µM (inactive)
CAKI-1
  GI50: > 100 µM (inactive)
LOX IMVI
  GI50: > 100 µM (inactive)
NCI-H522
  GI50: > 100 µM (inactive)
U-251
  GI50: > 100 µM (inactive)
SR
  GI50: > 100 µM (inactive)
RXF 393
  GI50: > 100 µM (inactive)
HOP-92
  GI50: > 100 µM (inactive)
M14
  GI50: > 100 µM (inactive)
SN12C
  GI50: > 100 µM (inactive)
Malme-3M
  GI50: > 100 µM (inactive)
SK-MEL-5
  GI50: > 100 µM (inactive)
MDA-MB-435
  GI50: > 100 µM (inactive)
SK-MEL-28
  GI50: > 100 µM (inactive)
NCI-H23
  GI50: > 100 µM (inactive)
SNB-19
  GI50: > 100 µM (inactive)
ACHN
  GI50: > 100 µM (inactive)
K562
  GI50: > 100 µM (inactive)
DU-145
  GI50: > 100 µM (inactive)
NCI/ADR-RES
  GI50: > 100 µM (inactive)
HCT-15
  GI50: > 100 µM
HCT-116
  GI50: > 100 µM (inactive)
UACC-257
  GI50: > 100 µM (inactive)
NCI-H460
  GI50: > 100 µM (inactive)
A549
  GI50: > 100 µM (inactive)
PC-3
  GI50: > 100 µM (inactive)
786-0
  GI50: > 100 µM (inactive)
RPMI-8226
  GI50: > 100 µM (inactive)
CCRF-CEM
  GI50: > 100 µM (inactive)
COLO 205
  GI50: > 100 µM (inactive)
MCF7
  GI50: > 100 µM (inactive)
Hs-578T
  GI50: > 100 µM (inactive)
A498
  GI50: > 100 µM (inactive)
SF-295
  GI50: > 100 µM (inactive)

## Cc1n[nH]c(=O)n1/N=C/c1ccncc1
UO-31
  GI50: > 100 µM (inactive)
HOP-62
  GI50: > 100 µM (inactive)
EKVX
  GI50: > 100 µM (inactive)
OVCAR-4
  GI50: > 100 µM (inactive)
NCI-H226
  GI50: > 100 µM (inactive)
MDA-N
  GI50: > 100 µM (inactive)
UACC-62
  GI50: > 100 µM (inactive)
KM12
  GI50: > 100 µM (inactive)
HT-29
  GI50: > 100 µM (inactive)
IGROV-1
  GI50: > 100 µM (inactive)
OVCAR-5
  GI50: > 100 µM (inactive)
MOLT-4
  GI50: > 100 µM (inactive)
SW-620
  GI50: > 100 µM (inactive)
HCC 2998
  GI50: > 100 µM (inactive)
SF-539
  GI50: > 100 µM (inactive)
SF-268
  GI50: > 100 µM (inactive)
CAKI-1
  GI50: > 100 µM (inactive)
LOX IMVI
  GI50: > 100 µM (inactive)
NCI-H522
  GI50: > 100 µM (inactive)
U-251
  GI50: > 100 µM (inactive)
RXF 393
  GI50: > 100 µM (inactive)
HOP-92
  GI50: > 100 µM (inactive)
M14
  GI50: > 100 µM (inactive)
SN12C
  GI50: > 100 µM (inactive)
Malme-3M
  GI50: > 100 µM (inactive)
TK-10
  GI50: > 100 µM (inactive)
SK-OV-3
  GI50: > 100 µM (inactive)
SK-MEL-5
  GI50: > 100 µM (inactive)
MDA-MB-435
  GI50: > 100 µM (inactive)
SK-MEL-28
  GI50: > 100 µM (inactive)
NCI-H23
  GI50: > 100 µM (inactive)
SNB-19
  GI50: > 100 µM (inactive)
ACHN
  GI50: > 100 µM (inactive)
K562
  GI50: > 100 µM (inactive)
DU-145
  GI50: > 100 µM (inactive)
NCI/ADR-RES
  GI50: > 100 µM (inactive)
HCT-15
  GI50: > 100 µM
HCT-116
  GI50: > 100 µM (inactive)
SK-MEL-2
  GI50: > 100 µM (inactive)
T47D
  GI50: > 100 µM (inactive)
MDA-MB-231
  GI50: > 100 µM (inactive)
SNB-75
  GI50: > 100 µM (inactive)
UACC-257
  GI50: > 100 µM (inactive)
NCI-H460
  GI50: > 100 µM (inactive)
A549
  GI50: > 100 µM (inactive)
786-0
  GI50: > 100 µM (inactive)
CCRF-CEM
  GI50: > 100 µM (inactive)
OVCAR-8
  GI50: > 100 µM (inactive)
COLO 205
  GI50: > 100 µM (inactive)
OVCAR-3
  GI50: > 100 µM (inactive)
Hs-578T
  GI50: > 100 µM (inactive)
A498
  GI50: > 100 µM (inactive)
SF-295
  GI50: > 100 µM (inactive)

## COc1cccc(/C(CC(O)(C(F)(F)F)C(F)(F)F)=N\N(C)C)c1
UO-31
  GI50: > 100 µM (inactive)
HOP-62
  GI50: > 100 µM (inactive)
EKVX
  GI50: > 100 µM (inactive)
OVCAR-4
  GI50: > 100 µM (inactive)
NCI-H226
  GI50: > 100 µM (inactive)
MDA-N
  GI50: > 100 µM (inactive)
HL-60
  GI50: > 100 µM (inactive)
UACC-62
  GI50: > 100 µM (inactive)
KM12
  GI50: > 100 µM (inactive)
HT-29
  GI50: > 100 µM (inactive)
IGROV-1
  GI50: > 100 µM (inactive)
OVCAR-5
  GI50: > 100 µM (inactive)
MOLT-4
  GI50: > 100 µM (inactive)
SW-620
  GI50: > 100 µM (inactive)
HCC 2998
  GI50: > 100 µM (inactive)
SF-539
  GI50: > 100 µM (inactive)
SF-268
  GI50: > 100 µM (inactive)
CAKI-1
  GI50: > 100 µM (inactive)
LOX IMVI
  GI50: > 100 µM (inactive)
NCI-H522
  GI50: > 100 µM (inactive)
U-251
  GI50: > 100 µM (inactive)
SR
  GI50: > 100 µM (inactive)
RXF 393
  GI50: > 100 µM (inactive)
HOP-92
  GI50: > 100 µM (inactive)
M14
  GI50: > 100 µM (inactive)
SN12C
  GI50: > 100 µM (inactive)
Malme-3M
  GI50: > 100 µM (inactive)
TK-10
  GI50: > 100 µM (inactive)
SK-OV-3
  GI50: > 100 µM (inactive)
SK-MEL-5
  GI50: > 100 µM (inactive)
MDA-MB-435
  GI50: > 100 µM (inactive)
SK-MEL-28
  GI50: > 100 µM (inactive)
NCI-H23
  GI50: > 100 µM (inactive)
SNB-19
  GI50: > 100 µM (inactive)
ACHN
  GI50: > 100 µM (inactive)
K562
  GI50: > 100 µM (inactive)
DU-145
  GI50: > 100 µM (inactive)
NCI/ADR-RES
  GI50: > 100 µM (inactive)
HCT-15
  GI50: > 100 µM
HCT-116
  GI50: > 100 µM (inactive)
SK-MEL-2
  GI50: > 100 µM (inactive)
T47D
  GI50: > 100 µM (inactive)
MDA-MB-231
  GI50: > 100 µM (inactive)
SNB-75
  GI50: > 100 µM (inactive)
NCI-H460
  GI50: > 100 µM (inactive)
A549
  GI50: > 100 µM (inactive)
PC-3
  GI50: > 100 µM (inactive)
786-0
  GI50: > 100 µM (inactive)
RPMI-8226
  GI50: > 100 µM (inactive)
CCRF-CEM
  GI50: > 100 µM (inactive)
COLO 205
  GI50: > 100 µM (inactive)
OVCAR-3
  GI50: > 100 µM (inactive)
Hs-578T
  GI50: > 100 µM (inactive)
A498
  GI50: > 100 µM (inactive)
SF-295
  GI50: > 100 µM (inactive)
